Assay: On-shelf aging of PPDA treated pulp at room conditions
Format: physicochemical
Conditions: pulp treated with 400 ppm PPDA
Protocol: Bleached softwood pulps that were treated with 400 ppm PPDA was stored on shelf as dry pulp in ambient conditions for 18 weeks and 20 weeks. The aged pulp samples were then fluffed and tested for ammonia generation by bacteria as in Example 1.
Aging test was also conducted on-shelf in the bag at room conditions. The result was shown in Table 12, and plotted in FIG. 5 in log scale.

NP(N)(=O)Oc1ccccc1 [PPDA, phenylphosphorodiamidate]
PPDA remaining on the pulp (HPLC) (stored on shelf as dry pulp in ambient conditions for 18 weeks): trace amount
PPDA remaining on the pulp (HPLC) (stored on shelf as dry pulp in ambient conditions for 20 weeks): no PPDA remaining

Source: patent US9370764B2, “Compositions and particles containing cellulosic fibers and stabilized-and/or activated-urease inhibitors, as well as methods of making and using the same” (INTERNATIONAL PAPER COMPANY, priority 2007, dated 2016)
